Results on 28 molecules are retold here after patent US8338565B2, “Macrocyclic compounds for inhibition of tumor necrosis factor alpha” (Ensemble Therapeutics Corporation, priority 2008, dated 2012).

SMILES strings stand for the structures. A value given as a limit tells only on which side of the number the result lay.

One assay deals with T1, TNFα / TNFα receptor (TNFα R1/Fc) (Homo sapiens, UniProt P01375).
T1 construct: purchased R&D Systems
T1 sequence (P01375 77-233 limits assumed, species assumed): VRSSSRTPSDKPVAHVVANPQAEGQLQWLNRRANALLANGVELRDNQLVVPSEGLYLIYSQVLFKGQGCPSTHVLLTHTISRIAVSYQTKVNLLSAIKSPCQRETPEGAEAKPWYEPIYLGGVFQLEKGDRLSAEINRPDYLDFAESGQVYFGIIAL
The assay is described as follows: Inhibition of binding of TNFα to the TNFα receptor (plate ELISA competition). As to conditions: Activity (IC50, inhibition of TNFα binding to TNFα R1/Fc), Table 2. The method, boiled down:
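Plates were coated with TNFα at 15 nM. Test compound and 8.33 nM receptor-Fc (PBST, 2% DMSO) were first mixed in solution for 30 min at room temperature, then transferred to the plates for another 30 min. Competition was read by absorbance at 450 nm after HRP anti-human IgG Fc detection with TMB.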
`C[C@@H](C(=O)O)N(C)C(=O)[C@@H]1Cc2ccc(cc2)OCC(=O)N[C@@H](Cc2cccs2)C(=O)N[C@H](Cc2ccc(-c3ccccc3)cc2)C(=O)N[C@@H](CCc2ccccc2)C(=O)N1` [Compound 575] gave an IC50 of less than 10 µM.
`C[C@H](C(=O)O)N(C)C(=O)[C@@H]1Cc2ccc(cc2)OCC(=O)N[C@@H](Cc2cccs2)C(=O)N[C@H](Cc2ccc(-c3ccccc3)cc2)C(=O)N[C@@H](CCc2ccccc2)C(=O)N1` [Compound 576] displayed an IC50 of less than 10 µM.
Still for that read-out and setting: as for `O=C1COc2ccc(cc2)C[C@@H](C(=O)N[C@H](Cc2ccccc2)C(=O)O)NC(=O)[C@H](Cc2cccs2)NC(=O)[C@@H](Cc2ccc(-c3ccccc3)cc2)NC(=O)[C@H](Cc2cccs2)N1` [Compound 588], the figure is less than 10 µM; as for `O=C1COc2ccc(cc2)C[C@@H](C(=O)N[C@@H](Cc2ccccc2)c2nnn[nH]2)NC(=O)[C@H](Cc2ccccc2)NC(=O)[C@@H](Cc2ccc(-c3ccccc3)cc2)NC(=O)[C@H](Cc2cccs2)N1` [Compound 590], less than 10 µM; as for `O=C1COc2ccc(cc2)C[C@@H](C(=O)NCc2nnn[nH]2)NC(=O)[C@H](Cc2ccccc2)NC(=O)[C@@H](Cc2ccc(-c3ccccc3)cc2)NC(=O)[C@H](Cc2cccs2)N1` [Compound 591], less than 10 µM.

Staying with this assay, now noted: Table 2; read-out: Activity (IC50, inhibition of TNFα binding to TNFα R1/Fc).
As for `C[C@@H](NC(=O)[C@@H]1Cc2ccc(cc2)OCC(=O)N[C@@H](Cc2ccc(-c3ccccc3)cc2)C(=O)N[C@H](Cc2ccc(-c3ccccc3)cc2)C(=O)N[C@@H](CCc2ccccc2)C(=O)N1)C(=O)O` [Compound 577], the IC50 is less than 10 µM.
Same read-out and setting: for `O=C1COc2ccc(cc2)C[C@@H](C(=O)NCCO)NC(=O)[C@H](CCc2ccccc2)NC(=O)[C@@H](Cc2ccc(-c3ccccc3)cc2)NC(=O)[C@H](Cc2ccncc2)N1` [Compound 578] the value was greater than 100 µM; for `O=C(O)CCNC(=O)[C@@H]1Cc2ccc(cc2)OCC(=O)N[C@@H](Cc2ccc(-c3ccncc3)cc2)C(=O)N[C@H](Cc2ccc(-c3ccccc3)cc2)C(=O)N[C@@H](CCc2ccccc2)C(=O)N1` [Compound 579], less than 10 µM; for `O=C(O)CCCNC(=O)[C@@H]1Cc2ccc(cc2)OCC(=O)N[C@@H](Cc2ccc(-c3ccncc3)cc2)C(=O)N[C@H](Cc2ccc(-c3ccccc3)cc2)C(=O)N[C@@H](CCc2ccccc2)C(=O)N1` [Compound 580], less than 10 µM.
The same measure, in the same setting: for `O=C1COc2ccc(cc2)C[C@@H](C(=O)N[C@@H](Cc2ccccc2)C(=O)O)NC(=O)[C@H](CCc2ccccc2)NC(=O)[C@@H](Cc2ccc(-c3ccccc3)cc2)NC(=O)[C@H](Cc2ccc(-c3ccncc3)cc2)N1` [Compound 581] the value was less than 10 µM; for `O=C1COc2ccc(cc2)C[C@@H](C(=O)N[C@H](Cc2ccccc2)C(=O)O)NC(=O)[C@H](CCc2ccccc2)NC(=O)[C@@H](Cc2ccc(-c3ccccc3)cc2)NC(=O)[C@H](Cc2ccc(-c3ccncc3)cc2)N1` [Compound 582], less than 10 µM; for `O=C1COc2ccc(cc2)C[C@@H](C(=O)N[C@@H](CO)C(=O)O)NC(=O)[C@H](CCc2ccccc2)NC(=O)[C@@H](Cc2ccc(-c3ccccc3)cc2)NC(=O)[C@H](Cc2ccc(-c3ccncc3)cc2)N1` [Compound 583], less than 10 µM.
Same read-out and setting: for `O=C1COc2ccc(cc2)C[C@@H](C(=O)N[C@H](CO)C(=O)O)NC(=O)[C@H](CCc2ccccc2)NC(=O)[C@@H](Cc2ccc(-c3ccccc3)cc2)NC(=O)[C@H](Cc2ccc(-c3ccncc3)cc2)N1` [Compound 584] the value was less than 10 µM; for `O=C1COc2ccc(cc2)C[C@@H](C(=O)N[C@@H](Cc2ccc(O)cc2)C(=O)O)NC(=O)[C@H](CCc2ccccc2)NC(=O)[C@@H](Cc2ccc(-c3ccccc3)cc2)NC(=O)[C@H](Cc2ccc(-c3ccncc3)cc2)N1` [Compound 585], less than 10 µM; for `O=C1COc2ccc(cc2)C[C@@H](C(=O)N[C@H](Cc2ccc(O)cc2)C(=O)O)NC(=O)[C@H](CCc2ccccc2)NC(=O)[C@@H](Cc2ccc(-c3ccccc3)cc2)NC(=O)[C@H](Cc2ccc(-c3ccncc3)cc2)N1` [Compound 586], less than 10 µM.
In the case of `O=C1COc2ccc(cc2)C[C@@H](C(=O)N[C@H](Cc2ccccc2)C(=O)O)NC(=O)[C@H](Cc2ccccc2F)NC(=O)[C@@H](Cc2ccc(-c3ccccc3)cc2)NC(=O)[C@H](Cc2cccs2)N1` [Compound 587], the IC50 was less than 10 µM.
Same read-out and setting: as for `O=C1COc2ccc(cc2)C[C@@H](C(=O)N[C@@H](Cc2ccccc2)c2nnn[nH]2)NC(=O)[C@H](CCc2ccccc2)NC(=O)[C@@H](Cc2ccc(-c3ccccc3)cc2)NC(=O)[C@H](Cc2ccncc2)N1` [Compound 592], the figure is less than 10 µM.
Same read-out and setting: for `O=C(NCS(=O)(=O)O)[C@@H]1Cc2ccc(cc2)NC(=O)[C@H](O)[C@@H](O)C(=O)N[C@H](Cc2cccs2)C(=O)N[C@@H](Cc2ccc(-c3ccccc3)cc2)C(=O)N[C@H](CCc2ccccc2)C(=O)N1` [Compound 593] the value was less than 10 µM; for `O=C1COc2ccc(cc2)C[C@@H](C(=O)NCCCS(=O)(=O)O)NC(=O)[C@H](CCc2ccccc2)NC(=O)[C@@H](Cc2ccc(-c3ccccc3)cc2)NC(=O)[C@H](Cc2ccncc2)N1` [Compound 599], less than 10 µM.
Regarding `CS(=O)(=O)NC(=O)[C@@H]1Cc2ccc(cc2)OCC(=O)N[C@@H](Cc2ccncc2)C(=O)N[C@H](Cc2ccc(-c3ccccc3)cc2)C(=O)N[C@@H](CCc2ccccc2)C(=O)N1` [Compound 600], the IC50 is 10 to 30 µM.
The same measure, in the same setting: as for `O=C1COc2ccc(cc2)C[C@@H](C(=O)NCCCS(=O)(=O)O)NC(=O)[C@H](CCc2ccccc2)NC(=O)[C@@H](Cc2ccc(-c3ccccc3)cc2)NC(=O)[C@H](Cc2cccs2)N1` [Compound 603], the figure is greater than 100 µM; as for `CN(CCS(=O)(=O)O)C(=O)[C@@H]1Cc2ccc(cc2)OCC(=O)N[C@@H](Cc2cccs2)C(=O)N[C@H](Cc2ccc(-c3ccccc3)cc2)C(=O)N[C@@H](CCc2ccccc2)C(=O)N1` [Compound 605], less than 10 µM; as for `O=C1COc2ccc(cc2)C[C@@H](C(=O)N(CCS(=O)(=O)O)C(CO)(CO)CO)NC(=O)[C@H](CCc2ccccc2)NC(=O)[C@@H](Cc2ccc(-c3ccccc3)cc2)NC(=O)[C@H](Cc2ccncc2)N1` [Compound 606], less than 10 µM.
Still for that read-out and setting: for `O=C1COc2ccc(cc2)C[C@@H](C(=O)NCCS(=O)(=O)O)NC(=O)[C@H](CCc2ccccc2)NC(=O)[C@@H](Cc2ccc(-c3ccccc3)cc2)NC(=O)[C@H](Cc2ccc(-c3ccccc3)cc2)N1` [Compound 608] the value was 10 to 30 µM; for `O=C1COc2ccc(cc2)C[C@@H](C(=O)NCS(=O)(=O)O)NC(=O)[C@H](Cc2ccccc2F)NC(=O)[C@@H](Cc2ccc(-c3ccccc3)cc2)NC(=O)[C@H](Cc2cccs2)N1` [Compound 612], 10 to 30 µM; for `COC(=O)[C@@H]1Cc2ccc(cc2)OCC(=O)N[C@@H](Cc2cccs2)C(=O)N[C@H](Cc2ccc(-c3ccccc3)cc2)C(=O)N[C@@H](CCc2ccccc2)C(=O)N1` [Compound 615], greater than 100 µM.
On the same count and under the same terms, as for `O=C1COc2ccc(cc2)C[C@@H](C(=O)NCS(=O)(=O)O)NC(=O)[C@H](CCc2ccccc2)NC(=O)[C@@H](Cc2ccc(-c3ccccc3)cc2)NC(=O)[C@H](Cc2ccc(-c3ccncc3)cc2)N1` [Compound 617], the figure is less than 10 µM; as for `O=C1COc2ccc(cc2)C[C@@H](C(=O)N[C@H](CCc2ccccc2)C(=O)O)NC(=O)[C@H](CCc2ccccc2)NC(=O)[C@@H](Cc2ccc(-c3ccccc3)cc2)NC(=O)[C@H](Cc2ccncc2)N1` [Compound 619], less than 10 µM.
